From patent EP1632243A1 (priority 2003, dated 2004)
Values after ≈ are worked out from the molar mass of the structure shown. Like-named read-outs stand apart in the source and are kept apart here. Residues, ends and D or L forms follow the SMILES beside them.

Key:
MT-4 cells = assay: Cytotoxicity to MT-4 cells, MTT method; type: cell-based; details: 12000ng/ml to 24ng/ml, 6 days
Protocol: Then test drugs were added. […] Cell growth was subsequently determined by the MTT method.

in vitro = details: human, 293 cells

Compound	inhibition of coronavirus in 293 cell cultures (No.04 coronavirus)	treatment index (TI) (No.04 coronavirus)	half-inhibitory concentration (IC50) (No.04 coronavirus; 24 h)	minimum inhibitory concentration (MIC) (No.04 coronavirus; 24 h)	cell growth (MT-4 cells)	CC50 at 144 h (in vitro)	MNTC at 144 h (in vitro)	half-inhibitory concentration (IC50) (No.04 coronavirus)	minimum inhibitory concentration (MIC) (No.04 coronavirus)
CC(C)C[C@H](NC(=O)[C@H](CCCCN)NC(=O)[C@@H](N)Cc1ccc(O)cc1)C(=O)N1CCC[C@H]1C(=O)NCC(=O)N[C@@H](Cc1c[nH]cn1)C(=O)N[C@@H](Cc1c[nH]cn1)C(=O)N[C@@H](Cc1c[nH]cn1)C(=O)N[C@@H](Cc1c[nH]cn1)C(=O)N[C@@H](Cc1ccc(O)cc1)C(=O)N[C@@H](CCCNC(=N)N)C(=O)N1CCC[C@H]1C(=O)O [AP-9] (H-YKLPGHHHHYRP-OH; N-terminus and C-terminus assumed)	capable of inhibiting coronavirus	32	15.6 ± 0 µg/mL	31.3 ± 0 µg/mL (≈ 0.0203 mM)	not affected	–	–	–	–
Nc1nc(O)c2ncn(COC(CO)CO)c2n1 [Ganciclovir, ganciclovir]	–	–	–	–	–	> 6000 µg/mL	> 6000 µg/mL	–	–
AP-1: high-affinity peptide antagonist targeting HAb18G/CD147, amino acid sequence SEQ ID NO:3 (MTHDPVISLPTT)	capable of inhibiting coronavirus	16	–	–	not affected	–	–	31.25 ± 0 µg/mL	62.25 ± 0 µg/mL
AP-6: high-affinity peptide antagonist targeting HAb18G/CD147, amino acid sequence SEQ ID NO:8 (YPFHHKHWHRPN)	capable of inhibiting coronavirus	16	–	–	not affected	–	–	31.25 ± 0 µg/mL	62.25 ± 0 µg/mL
